{"source": "patent US9248124B2", "about": "“Use of inhibitors of IκB kinase for the treatment of cancer” (Millennium Pharmaceuticals, Inc., priority 2001, dated 2016)", "type_in_all_cases": "cell-based, human", "key": {"Akt phosphorylation": {"tested_on": "Akt phosphorylation", "assay": "Phosphorylation of Akt triggered by IL-6 in MM.1S cells", "details": "compound 1 pre-treatment, data not shown"}, "[1]": {"tested_on": "NF-κB activation in MM.1S cells", "assay": "Electrophoretic mobility shift assay (EMSA) of NF-κB activation in MM.1S cells", "experimental": "Electrophoretic mobility shift analyses (EMSA) were carried out as in previous studies (Hideshima et al., Oncogene 20:4519 (2001); Hideshima et al., Cancer Res. 61:3071 (2001)). Briefly, MM.1S cells were pre-incubated with PS-341 (5 μM for 1 h) and compound 1 (10 μM for 90 min) before stimulation with TNFα (5 ng/mL) for 10 or 20 min. Cells were then pelleted, resuspended in 400 μL of hypotonic lysis buffer (20 mM HEPES, pH 7.9, 10 mM KCl, 1 mM EDTA, 0.2% Triton X-100, 1 mM Na3VO4, 5 mM NaF, 1 mM PMSF, 5 μg/mL leupeptin, 5 μg/mL aprotinin), and kept on ice for 20 min. After centrifugation (14000 g for 5 min) at 4° C., the nuclear pellet was extracted with 100 μL hypertonic lysis buffer (20 mM HEPES, pH 7.9, 400 mM NaCl, 1 mM EDTA, 1 mM Na3VO4, 5 mM NaF, 1 mM PMSF, 5 μg/mL leupeptin, 5 μg/mL aprotinin) on ice for 20 min. After centrifugation (14000 g for 5 min) at 4° C., the supernatant was collected as nuclear extract. […]\nSince NF-κB activation requires phosphorylation, ubiquitination, and degradation of IκBα, we next examined whether compound 1 could inhibit NF-κB activation, assessed by EMSA. […]"}, "IL-6 secretion in BMSCs": {"tested_on": "IL-6 secretion in BMSCs", "assay": "IL-6 secretion in BMSC cultures with or without MM.1S cells (ELISA)", "details": "0.4-10 μM, 48 h, dose dependent; FIG. 12A", "description": "BM specimens were obtained from patients with MM. Mononuclear cells (MNCs) separated by Ficoll-Hipaque density sedimentation were used to established long-term BM cultures, as previously described (Uchiyama et al., Blood 82:3712-3720 (1993)). When an adherent cell monolayer had developed, cells were harvested in Hank's Buffered Saline Solution (HBSS) containing 0.25% trypsin and 0.02% EDTA, washed, and collected by centrifugation.\nTo evaluate growth stimulation and signaling in MM cells adherent to BMSCs, 3×10^4 MM.1S cells were cultured in BMSC coated 96-well plates for 48 h, in the presence or absence of compound 1. DNA synthesis was measured as described above. The Duoset ELISA (R&D System) was used to measure IL-6 in supernatants of 48 h cultures of BMSCs with or without MM.1S cells, in the presence or absence of compound 1."}, "U266 cells": {"tested_on": "U266 cells", "assay": "Cell cycle profile by PI staining and flow cytometry, U266", "details": "10 μM for 24, 36 and 48 h, FIG. 4", "experimental": "For cell cycle analysis, MM cells cultured for 24-48 h in compound 1 (10 μM), Dex (1 μM); IL-6 (20 ng/mL), or control media were harvested, washed with phosphate-buffered saline (PBS), fixed with 70% ethanol, and treated with 10 μg/mL of RNase (Roche Diagnostics Corp., Indianapolis, Ind.). Cells were then stained with propidium iodine (PI, Sigma) (5 μg/mL). For detection of ICAM-1 expression, MM cells cultured in TNFα (5 ng/mL) in the presence or absence of compound 1 (10 μM) were harvested, washed with PBS, and stained with mouse IgG isotype control or FITC-conjugated mouse anti-human CD54 Ab. Both cell cycle profile and ICAM-1 expression were determined using an Epics (Coulter Immunology, Hialeah, Fla.) flow cytometer, as in prior studies (Hideshima et al., Oncogene 20:4519 (2001))."}, "[2]": {"tested_on": "IκBα phosphorylation and degradation in patient MM cells", "assay": "Immunoblot of IκBα phosphorylation and degradation triggered by TNFα in patient cells", "details": "10 μM for 90 min, TNFα 5 ng/mL, FIG. 1C", "experimental": "Dex-sensitive (MM.1S) human MM cell line was kindly provided by Dr. Steven Rosen (Northwestern University, Chicago, Ill.). RPMI8226 and U266 human MM cells were obtained from American Type Culture Collection (Rockville, Md.). All MM cell lines cultured in RPMI-1640 containing 10% fetal bovine serum (FBS, Sigma Chemical Co., St. Louis, Mo.), […], 100 U/mL penicillin (Pen) and 100 μg/mL streptomycin (Strep) (GIBCO, Grand Island, N.Y.). Patient MM cells were purified from patient BM aspirates using RosetteSep separation system (StemCell Technologies, Vancouver, Canada). The purity of MM cells was confirmed by flow cytometry using PE-conjugated anti-CD138 antibody (Beckton Dickinson Co.).\nMM cells were cultured with PS-341 or compound 1; harvested; washed; and lysed using lysis buffer: 50 mM Tris-HCl (pH 7.4), 150 mM NaCl, 1% NP-40, 5 mM EDTA, 5 mM NaF, 2 mM Na3VO4, 1 mM PMSF, 5 μg/mL leupeptin, and 5 μg/mL aprotinin. For detection of phospho-IκBα, IκBα, phospho-MAPK, phospho-STAT3, ERK2 or alpha-tubulin, cell lysates were subjected SDS-PAGE, transferred to PVDF membrane (Bio-Rad Laboratories, Hercules, Calif.), and immunoblotted with anti-phospho-IκBα, -IκBα, -phospho-MAPK, or -phospho-STAT3 Abs (Cell Signaling, Beverly, Mass.), and anti-alpha-tubulin (Sigma) Abs.\nInhibition of IκBα phosphorylation by compound 1 was assayed in MM.1S and patient MM cells triggered by TNFα. […]"}}}
{"smiles": "O=C(Nc1cc(Cl)cc2c1[nH]c1cnccc12)c1cccnc1", "note": "[compound 1, N-(6-chloro-9H-β-carbolin-8-yl)-nicotinamide]", "values": [{"measurement": "Phosphorylation of Akt triggered by IL-6", "setting": "Akt phosphorylation", "value": "unaffected"}, {"measurement": "NF-κB activation triggered by TNFα (EMSA), dose dependence", "setting": "[1]; compound 1 2.5-10 μM for 90 min, dose-dependent fashion, FIG. 6C", "value": "inhibits"}, {"measurement": "NF-κB activation (EMSA)", "setting": "[1]; pre-treated 10 μM for 90 min, TNFα 5 ng/mL for 0-20 min, FIG. 2", "value": "completely inhibited"}, {"measurement": "constitutive secretion of IL-6 in BMSCs", "setting": "IL-6 secretion in BMSCs", "value": "blocks"}, {"measurement": "increased IL-6 secretion triggered by adhesion of MM.1S cells to BMSCs", "setting": "IL-6 secretion in BMSCs", "value": "blocks"}, {"measurement": "cell cycle profile", "setting": "U266 cells", "value": "induced G1 growth arrest, but not apoptosis"}, {"measurement": "phosphorylation and degradation of IκBα triggered by TNFα", "setting": "[2]", "value": "inhibited"}]}
